The values that follow come from article PMC3994577 (BMC Infectious Diseases, 2014).

A short description of series [1]: Early RBV plasma exposure (AUC0-4h) after a 600 mg first dose of RBV. In kind it is in vivo, human (patients with chronic hepatitis C). The conditions noted are these: for AUC(0-t): human, plasma, oral, 600 mg. The protocol:
Patients were divided into two groups according to their HIV status. […] All patients gave their informed consent before they entered the study.
The plasma AUC was determined for each patient before the antiviral treatment or at the first day.
Results of AUC and normalized AUC were analyzed according to the two groups defined by the HIV status.
All quantitative variables were expressed as median and range. Comparisons of data were made using the non-parametric Mann–Whitney test. Statistical analysis was performed using the Statistica® software package (StatSoft Inc). […] A p value below 0.05 was considered as statistically significant.

For series [2] the following is noted: cited from earlier work.
For series [3] the following is noted: single oral dose, co-administration of a high fat meal; cited from earlier work.

Structures are written as SMILES. Like-named read-outs stand apart in the source and are kept apart here. Where only a bound is given, the exact number is not on record here.

As for `NC(=O)c1ncn([C@@H]2O[C@H](CO)[C@@H](O)[C@H]2O)n1` [RBV, ribavirin], the “Patients with AUC0-4h <1755” value in series [1] (HCV monoinfected patients (n = 63), threshold 1755 μg.h/L) came out at 32%. The “patients with AUC0-4h above the threshold of 1755 μg.h/L” value in series [1] (HIV-HCV coinfected patients) is 39%. The AUC(0-t) is 2030 ng·h/mL in series [1] (HCV monoinfected patients (n = 63), single 600 mg RBV dose, median (range), read-out: AUC0-4h); 2430 ng·h/mL in series [1] (HCV monoinfected, HCV treatment naive patients, read-out: median AUC0-4h); 1870 ng·h/mL in series [1] (HCV monoinfected, non-responders, read-out: median AUC0-4h); 2020 ng·h/mL in series [1] (HCV monoinfected, relapsers, read-out: median AUC0-4h); 1470 ng·h/mL in series [1] (HIV-HCV coinfected patients (n = 23), single 600 mg RBV dose, median (range), read-out: AUC0-4h); 1270 ng·h/mL in series [1] (HIV-HCV coinfected patients with CD4 < 500/mm^3, median (range), read-out: AUC0-4h). In addition, the AUC(0-t) in series [1] (HIV-HCV coinfected patients with CD4 ≥ 500/mm^3, median (range), read-out: AUC0-4h) was 1840 ng·h/mL; in series [1] (RBV-AUC 0-4h (median), HCV monoinfected patients, abstract), 2030 ng·h/mL; in series [1] (RBV-AUC 0-4h (median), HIV-HCV coinfected patients, abstract), 1470 ng·h/mL; in series [1] (all three HIV-HCV coinfected patients with detectable HIV RNA, read-out: AUC0-4h) it was below 1760 ng·h/mL; in series [1] (male, male HCV monoinfected patients, single 600 mg dose, median (range), read-out: Men AUC0-4h), 1880 ng·h/mL; in series [1] (male, male HIV-HCV coinfected patients, single 600 mg dose, median (range), read-out: Men AUC0-4h), 1410 ng·h/mL. Further, the figures for the “Men with AUC0-4h <1755” value in series [1] (male HCV monoinfected patients) and in series [1] (male HIV-HCV coinfected patients) were 43% and 65%, respectively. The “patients with AUC0-4h below the 1755 μg.h/L threshold” value in series [2] (historical study, monoinfected HCV genotype 1 patients) is 58%. In addition, the “threshold for RBV plasma AUC from 0 to 4 h post-dose discriminating SVR from non-response” value in series [2] (single dose of 600 mg, HCV monoinfected patients) was 1755 µg·h/L. For the same compound, the “AUCtf (from time zero to the time of the final quantifiable sample)” value in series [3] is “increased”. Moreover, in series [3], the Cmax entry is recorded as “increased”.
